The test system of assay [1] is Mus musculus. Kind of assay: Tested for ring immobility in mouse upon intravenous administration. The assay is classed as functional.
The target of assay [2] is T1, Cannabinoid receptor 1 (Rattus norvegicus, UniProt P20272). Nature of the assay: Compound was evaluated for binding affinity to displace [3H]CP-55940 radioligand from cannabinoid receptor in rat brain P2 membrane. The assay is classed as cell membranes.
For assay [3], the system named is Mus musculus. Nature of the assay: Tested for hypothermia in mouse upon intravenous administration. It counts as functional.
Assay [4] has as its target T1, Cannabinoid receptor 1. Kind of assay: Compound was evaluated for binding affinity towards cannabinoid receptor in rat brain P2 membrane. The assay is classed as cell membranes.
Assay [5] has as its system Mus musculus. Kind of assay: Tested for in vivo inhibition of locomotor activity in mouse upon intravenous administration. It counts as functional.
The test system of assay [6] is Mus musculus. Nature of the assay: Tested for in vivo […] by tail-flick method in mouse upon intravenous administration. The assay is classed as functional. In general terms: In hot-plate and tail-flick tests a longer latency is read as antinociception.

Each structure is given as a SMILES string. Values joined by “and” are separate entries in the source; they are usually repeats but may differ in a detail not shown here. Equal values may be shown once.

T1 sequence (P20272 whole entry): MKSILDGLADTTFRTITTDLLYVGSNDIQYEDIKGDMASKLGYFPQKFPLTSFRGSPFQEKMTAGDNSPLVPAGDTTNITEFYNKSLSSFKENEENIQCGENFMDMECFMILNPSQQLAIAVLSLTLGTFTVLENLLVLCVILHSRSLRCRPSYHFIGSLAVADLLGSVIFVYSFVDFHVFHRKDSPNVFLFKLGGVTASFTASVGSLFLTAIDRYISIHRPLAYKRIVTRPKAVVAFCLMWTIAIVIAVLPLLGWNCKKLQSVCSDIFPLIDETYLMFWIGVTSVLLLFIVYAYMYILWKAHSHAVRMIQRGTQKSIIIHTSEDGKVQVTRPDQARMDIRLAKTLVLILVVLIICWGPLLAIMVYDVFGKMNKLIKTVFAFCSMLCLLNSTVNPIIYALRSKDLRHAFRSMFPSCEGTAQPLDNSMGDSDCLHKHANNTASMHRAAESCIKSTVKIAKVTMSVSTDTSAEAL

For `CCCCC/C=C\C/C=C\C/C=C\C/C=C\CCC(C)C(=O)NCCF` (racemic), the ED50 (in general, the midpoint of the dose-response relation) in the assay with Mus musculus [1] was 1.6 mg/kg; in the assay on Mus musculus [3], 2.73 mg/kg; with Mus musculus [5], 1.85 mg/kg and 4.78 mg/kg. Further, the Ki (as a rule, the equilibrium dissociation constant of an inhibitor or competing ligand from its target) at Cannabinoid receptor 1 [2] is 21.2 nM; on Cannabinoid receptor 1 [4], 5.7 nM.

For `CCCCC/C=C\C/C=C\C/C=C\C/C=C\CCC(C)C(=O)NCCF` (single isomer, unassigned; (-)), the ED50 amounted to 2.93 mg/kg in the assay on Mus musculus [1], 10.1 mg/kg in the assay with Mus musculus [3], 1.34 mg/kg in the assay with Mus musculus [6] and 2.3 mg/kg in the assay with Mus musculus [5]. Besides, the affinity at Cannabinoid receptor 1 [2], expressed as Ki, was 15.3 nM.

As for `CCCCC/C=C\C/C=C\C/C=C\C/C=C\CCC(C)C(=O)NCCF` (stereo in doubt; (+)-4a), the ED50 is 5.27 mg/kg with Mus musculus [1], 2.49 mg/kg in the assay on Mus musculus [3], 2.56 mg/kg in the assay with Mus musculus [6] and 10.2 mg/kg in the assay with Mus musculus [5]. Also, the Ki at Cannabinoid receptor 1 [2] turned out to be 22.4 nM.
